From patent US12077503B2, “Substituted cyclic amides and their use as herbicides” (FMC CORPORATION, priority 2015, dated 2024)

Tests used:
Type in all cases: in vivo
[1] = tested on: Kochia (Kochia scoparia); assay: Test A preemergence
Outline: (§1)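 Seeds sprayed preemergence with a directed soil spray, or plants at 2 to 10 cm height and one- to two-leaf stage sprayed postemergence, with test chemicals in a non-phytotoxic solvent mixture containing surfactant, in loam soil–sand blend. Injury rated visually against untreated controls after about 10 d in greenhouse, 0 (no effect) to 100 (complete control).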

[2] = tested on: barnyardgrass (Echinochloa crus-galli); assay: Test A preemergence
Outline: as §1

[3] = tested on: giant foxtail (Setaria faberii); assay: Test A preemergence
Outline: as §1

[4] = tested on: pigweed (Amaranthus retroflexus); assay: Test A preemergence
[5] = tested on: ragweed (common ragweed, Ambrosia elatior); assay: Test A preemergence
Outline: as §1

[6] = tested on: ryegrass, Italian (Italian ryegrass, Lolium multiflorum); assay: Test A preemergence
Outline: as §1

[7] = tested on: Galium (catchweed bedstraw, Galium aparine); assay: Test A postemergence; conditions: postemergence, 0 to 100 scale (0 no effect, 100 complete control)
Outline: as §1

[8] = tested on: Kochia (Kochia scoparia); assay: Test A postemergence; conditions: postemergence, 0 to 100 scale (0 no effect, 100 complete control)
Outline: as §1

[9] = tested on: barnyardgrass (Echinochloa crus-galli); assay: Test A postemergence; conditions: postemergence, 0 to 100 scale (0 no effect, 100 complete control)
Outline: as §1

[10] = tested on: blackgrass (Alopecurus myosuroides); assay: Test A postemergence; conditions: postemergence, 0 to 100 scale (0 no effect, 100 complete control)
Outline: as §1

[11] = tested on: corn (Zea mays); assay: Test A postemergence; conditions: postemergence, 0 to 100 scale (0 no effect, 100 complete control)
Outline: as §1

[12] = tested on: giant foxtail (Setaria faberii); assay: Test A postemergence; conditions: postemergence, 0 to 100 scale (0 no effect, 100 complete control)
Outline: as §1

[13] = tested on: pigweed (Amaranthus retroflexus); assay: Test A postemergence; conditions: postemergence, 0 to 100 scale (0 no effect, 100 complete control)
Outline: as §1

[14] = tested on: ragweed (common ragweed, Ambrosia elatior); assay: Test A postemergence; conditions: postemergence, 0 to 100 scale (0 no effect, 100 complete control)
Outline: as §1

[15] = tested on: ryegrass, Italian (Italian ryegrass, Lolium multiflorum); assay: Test A postemergence; conditions: postemergence, 0 to 100 scale (0 no effect, 100 complete control)
Outline: as §1

[16] = tested on: wheat (Triticum aestivum); assay: Test A postemergence; conditions: postemergence, 0 to 100 scale (0 no effect, 100 complete control)
Outline: as §1

[17] = tested on: barnyardgrass (Echinochloa crus-galli); assay: Test B flooded paddy test; conditions: Flood, 0 to 100 scale where 0 is no effect and 100 is complete control, 13 to 15 d
Outline: (§2)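 Evaluation by eye, against controls, occurred 13–15 d post-treatment in a greenhouse, using a 0 (no effect) to 100 (complete control) scale. Application was into the paddy water, 3 cm deep over the soil, on 2-leaf plants.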

[18] = tested on: ducksalad (Heteranthera limosa); assay: Test B flooded paddy test; conditions: Flood, 0 to 100 scale where 0 is no effect and 100 is complete control, 13 to 15 d
Outline: as §2

[19] = tested on: rice (Oryra sativa); assay: Test B flooded paddy test; conditions: Flood, 0 to 100 scale where 0 is no effect and 100 is complete control, 13 to 15 d
Outline: as §2

[20] = tested on: sedge, umbrella (small-flower umbrella sedge, Cyperus difformis); assay: Test B flooded paddy test; conditions: Flood, 0 to 100 scale where 0 is no effect and 100 is complete control, 13 to 15 d
Outline: as §2

[21] = 125 g ai/ha, Preemergence, visual injury after approximately 10 d, 0 to 100 scale where 0 is no effect and 100 is complete control
[22] = 500 g ai/ha, preemergence, 0 to 100 scale, 0 = no effect, 100 = complete control
[23] = 125 g ai/ha, visual rating after approx. 10 d
[24] = 500 g ai/ha, visual injury, approx. 10 d
[25] = 125 g ai/ha, preemergence, visual rating after approx. 10 d, 0 to 100 scale where 0 is no effect and 100 is complete control
[26] = 125 g ai/ha, visual injury after approximately 10 d

Row | SMILES | Plant response rating, Kochia [1, 21] | Plant response rating, Kochia [1, 22] | Plant response rating, Barnyardgrass [2, 21] | Plant response rating, Barnyardgrass [2, 22] | Plant response rating, Foxtail, Giant [3, 21] | Plant response rating, Foxtail, Giant [3, 22] | Plant response rating, Pigweed [4, 22] | Plant response rating, Ragweed [5, 22] | Plant response rating, Ryegrass, Italian [6, 22] | Plant response rating, Galium [7, 24] | Plant response rating, Kochia [8, 24] | Plant response rating, Barnyardgrass [9, 23] | Plant response rating, Barnyardgrass [9, 24] | Plant response rating, Blackgrass [10, 24] | Plant response rating, Corn [11, 24] | Plant response rating, Foxtail, Giant [12, 24] | Plant response rating, Pigweed [13, 24] | Plant response rating, Ragweed [14, 24] | Plant response rating, Ryegrass, Italian [15, 24] | Plant response rating, Wheat [16, 24] | also measured
1 | CCc1cc(C2CNC(=O)C2C(=O)Nc2ccccc2F)cs1 (racemic) [Compound 657] | 20 | 40 | 90 | 90 | 90 | 90 | 30 | 20 | 30 | 30 | 0 | 90 | 90 | 30 | 0 | 60 | 0 | 0 | 0 | 0 | Plant response rating, Pigweed [4, 21]: 20; Plant response rating, Ragweed [5, 21]: 20; Plant response rating, Ryegrass, Italian [6, 21]: 20; Plant response rating, Galium [7, 23]: 0; Plant response rating, Kochia [8, 23]: 0; Plant response rating, Blackgrass [10, 23]: 0; Plant response rating, Corn [11, 23]: 0; Plant response rating, Foxtail, Giant [12, 23]: 0; Plant response rating, Pigweed [13, 23]: 0; Plant response rating, Ragweed [14, 23]: 0; Plant response rating, Ryegrass, Italian [15, 23]: 0; Plant response rating, Wheat [16, 23]: 0; Plant response rating, Barnyardgrass ([17]; 250 g ai/ha): 40; Plant response rating, Ducksalad ([18]; 250 g ai/ha): 100; Plant response rating, Rice ([19]; 250 g ai/ha): 0; Plant response rating, Sedge, Umbrella ([20]; 250 g ai/ha): 0
2 | CCc1cc(C2CNC(=O)C2C(=O)Nc2cccc(F)c2F)cs1 (racemic) [Compound 658] | 0 | 30 | 90 | 90 | 90 | 90 | 50 | 70 | 70 | 60 | 30 | 70 | 90 | 70 | 30 | 60 | 0 | 40 | 60 | 30 | Plant response rating, Pigweed [4, 21]: 0; Plant response rating, Ragweed [5, 21]: 50; Plant response rating, Ryegrass, Italian [6, 21]: 0; Plant response rating, Galium [7, 23]: 60; Plant response rating, Kochia [8, 23]: 0; Plant response rating, Blackgrass [10, 23]: 40; Plant response rating, Corn [11, 23]: 0; Plant response rating, Foxtail, Giant [12, 23]: 0; Plant response rating, Pigweed [13, 23]: 0; Plant response rating, Ragweed [14, 23]: 0; Plant response rating, Ryegrass, Italian [15, 23]: 30; Plant response rating, Wheat [16, 23]: 0; Plant response rating, Barnyardgrass ([17]; 250 g ai/ha): 50; Plant response rating, Ducksalad ([18]; 250 g ai/ha): 100; Plant response rating, Rice ([19]; 250 g ai/ha): 0; Plant response rating, Sedge, Umbrella ([20]; 250 g ai/ha): 0
3 | O=C1NCC(c2cccc(C(F)(F)F)c2)C1C(=O)Nc1ccc(F)cc1Cl (racemic) [Compound 676] | 0 | 0 | 70 | 90 | 80 | 90 | 0 | 0 | 20 | 40 | 0 | 50 | 80 | 40 | 50 | 80 | 0 | 0 | 20 | 20 | Plant response rating, Pigweed [4, 21]: 0; Plant response rating, Ragweed [5, 21]: 0; Plant response rating, Ryegrass, Italian [6, 21]: 0; Plant response rating, Galium [7, 23]: 0; Plant response rating, Kochia [8, 23]: 0; Plant response rating, Blackgrass [10, 23]: 20; Plant response rating, Corn [11, 23]: 0; Plant response rating, Foxtail, Giant [12, 23]: 20; Plant response rating, Pigweed [13, 23]: 0; Plant response rating, Ragweed [14, 23]: 0; Plant response rating, Ryegrass, Italian [15, 23]: 0; Plant response rating, Wheat [16, 23]: 0; Plant response rating, Barnyardgrass ([17]; 500 g ai/ha): 80; Plant response rating, Ducksalad ([18]; 500 g ai/ha): 85; Plant response rating, Rice ([19]; 500 g ai/ha): 15; Plant response rating, Sedge, Umbrella ([20]; 500 g ai/ha): 0
4 | O=C1NCC(c2cccc(Br)c2)C1C(=O)Nc1ccc(F)cc1F (racemic) [Compound 687] | 0 | 40 | 90 | 90 | 90 | 90 | 30 | 0 | 20 | 20 | 30 | 90 | 90 | 40 | 70 | 90 | 20 | 30 | 40 | 60 | Plant response rating, Pigweed [4, 25]: 0; Plant response rating, Ragweed [5, 25]: 0; Plant response rating, Ryegrass, Italian [6, 25]: 0; Plant response rating, Galium [7, 26]: 0; Plant response rating, Kochia [8, 26]: 0; Plant response rating, Blackgrass [10, 23]: 30; Plant response rating, Corn [11, 26]: 0; Plant response rating, Foxtail, Giant [12, 26]: 80; Plant response rating, Pigweed [13, 26]: 0; Plant response rating, Ragweed [14, 26]: 30; Plant response rating, Ryegrass, Italian [15, 26]: 20; Plant response rating, Wheat [16, 26]: 0; Plant response rating, Barnyardgrass ([17]; 250 g ai/ha): 35; Plant response rating, Ducksalad ([18]; 250 g ai/ha): 80; Plant response rating, Rice ([19]; 250 g ai/ha): 0; Plant response rating, Sedge, Umbrella ([20]; 250 g ai/ha): 0
5 | COC(=O)c1ccccc1NC(=O)C1C(=O)NCC1c1cccc(C(F)(F)F)c1 (racemic) [Compound 705] | – | 0 | – | 0 | – | 0 | 0 | 0 | 0 | 0 | 0 | – | 0 | 0 | 0 | 0 | 0 | 0 | 0 | 0 | Plant response rating, Kochia [1, 25]: 0; Plant response rating, Barnyardgrass [2, 25]: 0; Plant response rating, Foxtail, Giant [3, 25]: 0; Plant response rating, Pigweed [4, 25]: 0; Plant response rating, Ragweed [5, 25]: 0; Plant response rating, Ryegrass, Italian [6, 25]: 0; Plant response rating, Galium [7, 26]: 0; Plant response rating, Kochia [8, 26]: 0; Plant response rating, Barnyardgrass [9, 26]: 0; Plant response rating, Blackgrass [10, 26]: 0; Plant response rating, Corn [11, 26]: 0; Plant response rating, Foxtail, Giant [12, 26]: 0; Plant response rating, Pigweed [13, 26]: 0; Plant response rating, Ragweed [14, 26]: 0; Plant response rating, Ryegrass, Italian [15, 26]: 0; Plant response rating, Wheat [16, 26]: 0; Plant response rating, Barnyardgrass ([17]; 500 g ai/ha): 0; Plant response rating, Ducksalad ([18]; 500 g ai/ha): 0; Plant response rating, Rice ([19]; 500 g ai/ha): 0; Plant response rating, Sedge, Umbrella ([20]; 500 g ai/ha): 0
